Measurements reported in US20260240850A1, “Compositions and Methods for Treating MALT1 Associated Diseases” (Rarefied Biosciences, Inc., priority 2023, published 2026).

How the values were obtained:
[1] = test system: mTor pathway (e.g., mTORc1 and/or mTORc2) in primary T cells; assay: mTor pathway activation in stimulated primary T cells, pAkt/pS6 staining (Example 3); assay type: cell-based; conditions: primary T cells after anti-CD3/anti-CD28 activation
Experimental: Primary T cells are stimulated to activation and cultured in the presence of IL-2. For stimulation, cells are preincubated with anti-CD3F and anti-CD28 on ice and washed. Cells were stimulated by crosslinking the anti-CD3 antibody with a secondary antibody (e.g., anti-mouse IgG for 10 min) in complete T cell media and then fixed with pre-warmed fixation buffer. Cells are then washed with FACS buffer and permeabilized with permeabilization buffer pre-chilled to −20° C. and incubated for 30 min on ice. Cells are washed and then stained with the following antibodies or appropriate isotype controls anti-pAkt (Ser473) and anti-pS6 (Ser240/244).
MALT1 inhibitors (e.g., Compounds 1.1, 1.26, 1.27, 1.30, 1.33, 2.1, and/or 2.4) are incubated with the primary T cells after activation.

full-length human MALT1 = biological target: T1, full-length human MALT1 (Homo sapiens, UniProt Q9UDY8); assay: MALT1 cleavage of HOIL1 (Example 5); assay type: biochemical; conditions: HOIL1 0.05 μg/μL with MALT1, 2 h at 37° C.; gel electrophoresis/immunoblot
T1 construct: Recombinant full-length human MALT1 protein was expressed and purified; made in house
T1 sequence (Q9UDY8 1-824): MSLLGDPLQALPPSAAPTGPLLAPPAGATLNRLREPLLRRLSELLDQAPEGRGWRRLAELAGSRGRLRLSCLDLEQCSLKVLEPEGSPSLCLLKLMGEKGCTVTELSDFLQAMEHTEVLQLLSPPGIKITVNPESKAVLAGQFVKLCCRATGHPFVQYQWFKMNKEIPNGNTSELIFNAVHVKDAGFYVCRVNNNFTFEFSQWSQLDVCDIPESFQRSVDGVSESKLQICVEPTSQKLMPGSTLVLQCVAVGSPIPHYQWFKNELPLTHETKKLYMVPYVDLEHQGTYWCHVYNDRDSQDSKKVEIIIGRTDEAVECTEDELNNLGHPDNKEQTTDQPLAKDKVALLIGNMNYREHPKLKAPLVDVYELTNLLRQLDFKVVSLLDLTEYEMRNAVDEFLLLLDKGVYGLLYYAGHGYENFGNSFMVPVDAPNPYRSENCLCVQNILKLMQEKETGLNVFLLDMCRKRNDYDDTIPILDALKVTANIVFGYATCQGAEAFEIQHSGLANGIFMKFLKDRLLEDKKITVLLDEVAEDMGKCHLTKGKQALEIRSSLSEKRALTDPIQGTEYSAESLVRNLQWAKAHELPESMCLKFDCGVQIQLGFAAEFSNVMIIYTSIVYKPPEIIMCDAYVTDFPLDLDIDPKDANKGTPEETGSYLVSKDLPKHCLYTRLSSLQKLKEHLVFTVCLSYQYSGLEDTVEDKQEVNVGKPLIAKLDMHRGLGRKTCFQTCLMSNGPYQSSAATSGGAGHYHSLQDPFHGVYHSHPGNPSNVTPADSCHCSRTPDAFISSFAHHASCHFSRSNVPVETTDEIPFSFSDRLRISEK
Experimental: Recombinant full-length human MALT1 protein was expressed and purified. C-terminal Myc-FLAG-tagged full-length human HOIL1 was obtained from Origene. HOIL1 protein (0.05 μg/μL) is incubated with different concentrations of MALT1 in assay buffer (200 mM Tris-HCl, 0.8 M Na citrate, 0.1 mM EGTA, 0.05% CHAPS, 1 mM DTT, pH 7.4) for 2 h at 37° C. Cleavage of HOIL1 was analyzed by gel electrophoresis using a 4-12% Bis-Tris SDS-polyacrylamide (PAGE) gradient gel (Life Technologies). The presence of a small fragment was confirmed by immunoblotting with an N-terminal antibody (anti-N-terminal HOIL1; HPA024185; Sigma). Total HOIL1 was observed using a C-terminal directed antibody (anti-FLAG, clone M2, Sigma). These assays are performed with both the cleavable HOIL1 and, as a negative control, a non-cleavable HOIL1 (where Lys is substituted for Arg165).

[2] = test system: T cells that lack endogenous CARD11 and bear transfected CARD11 gain-of-function mutations; κB-GFP readout of NFκB signaling; assay: NF-κB-GFP reporter in T cells transfected with CARD11 gain-of-function cDNA (Example 1); assay type: cell-based; conditions: T cells with CARD11 GOF variants; baseline and after anti-CD3 or PMA/ionomycin; flow cytometry
Experimental: MALT1 inhibitors (e.g., Compounds 1.1, 1.26, 1.27, 1.30, 1.33, 2.1, and/or 2.4) are incubated with T cells that lack endogenous CARD11 and bear transiently transfected CARD11 cDNA bearing gain-of-function mutations. An optional variation is co-transfecting 50:50 a copy of the wildtype CARD11 gene with the CARD11 gain of function mutant. The T-cells include a reporter gene (κB-GFP) that acts as a readout of NFκB signaling. The expression of NF-κB-GFP at baseline and after anti-CD3, or PMA/ionomycin stimulation is measured.
T-Cells bearing GOF variants of CARD11 have elevated baseline activation of NF-κB-GFP, and higher still after stimulation, which is assessed by flow cytometry.

patients with BENTA = assay: Clinical trial of MALT1 inhibitors for BENTA (Example 2); assay type: in vivo; conditions: oral once daily, 25 mg/day up to 1000 mg/day
Experimental: MALT1 inhibitors (e.g., Compounds 1.1, 1.26, 1.27, 1.30, 1.33, 2.1, and/or 2.4) are used to treat patients with BENTA. MALT1 inhibitors (e.g., Compounds 1.1, 1.26, 1.27, 1.30, 1.33, 2.1, and/or 2.4) are formulated in an oral dosage form and administered to patients once daily at a starting dose of 25 mg/day. Alternatively, the daily dose is escalated from 25 mg/day to 1000 mg/day.

[3] = test system: epithelial cells (e.g., HEK293 cells) bearing CARD14 gain-of-function mutations; κB-GFP readout of NFκB signaling; assay: NF-κB-GFP reporter in epithelial cells transfected with CARD14 gain-of-function cDNA (Example 4); assay type: cell-based; conditions: epithelial cells with CARD14 GOF variants; flow cytometry
Experimental: MALT1 inhibitors (e.g., Compounds 1.1, 1.26, 1.27, 1.30, 1.33, 2.1, and/or 2.4) are incubated with epithelial cells (e.g., HEK293 cells) that lack endogenous CARD14 and bear transiently transfected CARD14 cDNA bearing gain-of-function mutations. The epithelial cells include a reporter gene (κB-GFP) that acts as a readout of NFκB signaling. The expression of NF-κB-GFP at baseline and after anti-CD3, or PMA/ionomycin stimulation is measured.
Epithelial cells bearing gain of function variants of CARD14 have elevated baseline activation of NF-κB-GFP, and higher still after stimulation, which is assessed by flow cytometry.

In the case of `CO[C@@H](C)c1c(Nc2ccc([C@@H](N(C)C(=O)C3CCS(=O)(=O)CC3)C(F)(F)F)cc2)cnc2nc(Cl)nn12` [Compound 1.26, N-[(1R)-1-[4-({2-chloro-7-[(1S)-1-methoxyethyl]-[L2,4]triazolo[1,5-a]pyrimidin-6-yl}amino)phenyl]-2,2,2-trifluoroethyl]-N-methyl-1,1-dioxo-1λ^6-thiane-4-carboxamide], the “mTor pathway (mTORc1 and/or mTORc2) activation” value [1] is reported as “suppress mTor pathway (e.g., mTORc1 and/or mTORc2) activation”, the “cleavage of HOIL1” value (full-length human MALT1) is reported as “cleavage of HOIL1 is reduced” and the NF-κB-GFP expression [2] is reported as “lowered NF-κB-GFP expression”. For the same molecule, the BENTA symptoms (patients with BENTA) was “amelioration of their BENTA symptoms”, the “Jun/Fos, NF-κB and/or mTor pathway activation in patients” value (from here on “Jun/Fos … in patients”) (patients with BENTA) was “reduced Jun/Fos, and/or NF-κB and/or a mTor pathway (e.g., mTORc1 and/or mTORc2) activation” and the NF-κB-GFP expression [3] was “lowered NF-κB-GFP expression”.

With `CO[C@H](C)c1c(Nc2ccc([C@@H](N(C)C(=O)C3CCS(=O)(=O)CC3)C(F)(F)F)cc2)cnc2nc(Cl)nn12` [Compound 1.27, N—[(IR)—I-[4-({2-chloro-7-[(1R)-1-methoxyethyl]-[1,2,4]triazolo[1,5-a]pyrimidin-6-yl}amino)phenyl]-2,2,2-trifluoroethyl]-N-methyl-1,1-dioxo-1λ^6-thiane-4-carboxamide] the “mTor pathway (mTORc1 and/or mTORc2) activation” value [1] was “suppress mTor pathway (e.g., mTORc1 and/or mTORc2) activation”, the “cleavage of HOIL1” value (full-length human MALT1) was “cleavage of HOIL1 is reduced” and the NF-κB-GFP expression [2] was “lowered NF-κB-GFP expression”. The BENTA symptoms (patients with BENTA) was “amelioration of their BENTA symptoms”, the “Jun/Fos … in patients” value (patients with BENTA) was “reduced Jun/Fos, and/or NF-κB and/or a mTor pathway (e.g., mTORc1 and/or mTORc2) activation” and the NF-κB-GFP expression [3] was “lowered NF-κB-GFP expression”.

In the case of `CO[C@@H](C)c1c(Nc2ccc([C@H](N(C)C(=O)C3CCS(=O)(=O)CC3)C(F)(F)F)c(C)c2)cnc2nc(Cl)nn12` [Compound 1.30, N-[(1S)-1-[4-({2-chloro-7-[(1S)-1-methoxyethyl]-[1,2,4]triazolo[1,5-a]pyrimidin-6-yl}amino)-2-methylphenyl]-2,2,2-trifluoroethyl]-N-methyl-1,1-dioxo-1λ^6-thiane-4-carboxamide], the “mTor pathway (mTORc1 and/or mTORc2) activation” value [1] is reported as “suppress mTor pathway (e.g., mTORc1 and/or mTORc2) activation”, the “cleavage of HOIL1” value (full-length human MALT1) is reported as “cleavage of HOIL1 is reduced” and the NF-κB-GFP expression [2] is reported as “lowered NF-κB-GFP expression”. For the same molecule, the BENTA symptoms (patients with BENTA) was “amelioration of their BENTA symptoms”, the “Jun/Fos … in patients” value (patients with BENTA) was “reduced Jun/Fos, and/or NF-κB and/or a mTor pathway (e.g., mTORc1 and/or mTORc2) activation” and the NF-κB-GFP expression [3] was “lowered NF-κB-GFP expression”.

In the case of `CO[C@@H](C)c1c(Nc2ccc([C@H](N(C)C(=O)C3CCS(=O)(=O)CC3)C(F)(F)F)cc2C)cnc2nc(Cl)nn12` [Compound 1.33, N-[(1S)-1-[4-({2-chloro-7-[(1S)-1-methoxyethyl]-[1,2,4]triazolo [1,5-a]pyrimidin-6-yl}amino)-3-methylphenyl]-2,2,2-trifluoroethyl]-N-methyl 1,1-dioxo-1λ^6-thiane-4-carboxamide], the “mTor pathway (mTORc1 and/or mTORc2) activation” value [1] is reported as “suppress mTor pathway (e.g., mTORc1 and/or mTORc2) activation”, the “cleavage of HOIL1” value (full-length human MALT1) is reported as “cleavage of HOIL1 is reduced” and the NF-κB-GFP expression [2] is reported as “lowered NF-κB-GFP expression”. The BENTA symptoms (patients with BENTA) was “amelioration of their BENTA symptoms”, the “Jun/Fos … in patients” value (patients with BENTA) was “reduced Jun/Fos, and/or NF-κB and/or a mTor pathway (e.g., mTORc1 and/or mTORc2) activation” and the NF-κB-GFP expression [3] was “lowered NF-κB-GFP expression”.

`CN(C(=O)[C@H]1CC[C@H](C(=O)O)CC1)[C@@H](c1ccc(Nc2cnn(-c3ccccc3)c2C(F)(F)F)cc1)C(F)(F)F` [Compound 2.1] was tested, and the “mTor pathway (mTORc1 and/or mTORc2) activation” value [1] was “suppress mTor pathway (e.g., mTORc1 and/or mTORc2) activation”, the “cleavage of HOIL1” value (full-length human MALT1) was “cleavage of HOIL1 is reduced” and the NF-κB-GFP expression [2] was “lowered NF-κB-GFP expression”. For the same molecule, the BENTA symptoms (patients with BENTA) was “amelioration of their BENTA symptoms”, the “Jun/Fos … in patients” value (patients with BENTA) was “reduced Jun/Fos, and/or NF-κB and/or a mTor pathway (e.g., mTORc1 and/or mTORc2) activation” and the NF-κB-GFP expression [3] was “lowered NF-κB-GFP expression”.
